Source: patent US7622598B2, “Phenol derivatives and antitrypanosoma preventive/therapeutic agent comprising the same as active ingredient” (aRigen Pharmaceuticals, Inc., priority 2003, dated 2009)
Like-named read-outs stand apart in the source and are kept apart here.

Assays:
[1] = target: cyanide resistant quinol enzyme of Trypanosoma (Trypanosoma brucei brucei, UniProt Q26710); assay: Respiration inhibition on the cyanide resistant quinol enzyme of Trypanosoma (recombinant enzyme); assay type: biochemical
Sequence of cyanide resistant quinol enzyme of Trypanosoma (Q26710 whole entry): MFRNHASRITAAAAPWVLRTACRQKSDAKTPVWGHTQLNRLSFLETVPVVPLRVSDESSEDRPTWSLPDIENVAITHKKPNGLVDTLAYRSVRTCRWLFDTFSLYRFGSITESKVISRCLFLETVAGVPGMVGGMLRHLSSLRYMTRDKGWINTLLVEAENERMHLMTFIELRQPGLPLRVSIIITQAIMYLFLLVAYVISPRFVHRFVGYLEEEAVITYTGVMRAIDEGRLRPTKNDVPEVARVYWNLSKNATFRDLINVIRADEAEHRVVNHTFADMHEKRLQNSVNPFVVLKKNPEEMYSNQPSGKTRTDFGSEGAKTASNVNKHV
Description: Antitrypanosoma Action (IC50)
The respiration inhibition effect of the novel phenol derivatives on the cyanide resistant quinol enzyme of Trypanosoma was examined with the use of a recombinant enzyme.

Trypanosma brucei brucei = assay: Antitrypanosoma action in 24 h culture, minimum effective concentration, with or without glycerin; assay type: cell-based, Trypanosoma brucei brucei; conditions: for Minimum Effective Concentration, Presence of Glycerin: 5 mM of glycerin; for minimal effective concentration: Trypanosoma brucei, read-out: Minimum Effective Concentration, Absence of Glycerin
Experimental: With the use of a 96-well culture plate, each agent was adjusted to 10 mM with DMSO, and 5×10^5/ml of Trypanosma brucei brucei was added and cultured at 37° C. for 24 hours, and the minimum effective concentration was calculated.
The above described culture was conducted with the addition of 5 mM of glycerin under the same conditions as described above and observed.

[2] = test system: glycerol-3-phosphate-dependent respiration in the mitochondrial specimen of Trypanosoma brucei brucei; conditions: earlier filing JP H09-165332; cited from earlier work
[3] = test system: glycerol-3-phosphate-dependent respiration in the mitochondrial specimen of Trypanosoma brucei brucei; assay: Inhibition of glycerol-3-phosphate-dependent respiration in mitochondrial specimen; assay type: biochemical; conditions: mitochondrial specimen from T. brucei brucei multiplied in rat bloodstream
Description: The inhibition effect of the novel halogen-containing phenol derivatives having an alkyl side chain on the glycerol-3-phosphate-dependent respiration in the mitochondrial specimen prepared by mechanically crushing the bodies of Trypanosoma brucei brucei multiplied in the rat bloodstream with glass beads and subjecting the crushed bodies to centrifugal fractionation was examined.

[4] = 5×10^5/ml, 37° C., 24 hours, no glycerin

| SMILES | melting point [°C] | IC50 [1] [nM] | Minimum Effective Concentration, Presence of Glycerin (Trypanosma brucei brucei; 5×10^5/ml, 37° C., 24 hours) [µM] | minimal effective concentration (Trypanosma brucei brucei; [4]) [µM] | also measured |
| --- | --- | --- | --- | --- | --- |
| CCCCCCCCCCCC(O)c1c(O)c(Cl)cc(C(=O)OC)c1O (centres unmarked) | 96 to 97 |  |  |  |  |
| Cc1c(Cl)c(O)c(CCC(C)CCCC(C)[C@@H]2CC(=O)C(C)(C)O2)c(O)c1C=O (mixture of isomers) [compound 212, 3-Chloro-4,6-dihydroxy-2-methyl-5-[3-methyl-7-(tetrahydro-5,5-dimethyl-4-oxo-2-furanyl)octyl]-benzaldehyde] |  | 0.3 |  |  |  |
| Cc1c(Cl)c(O)c(CCC(C)CCCC(C)C)c(O)c1C=O (racemic) [dl-218, 3-Chloro-5-(3,7-dimethyloctyl)-4,6-dihydroxy-2-methylbenzaldehyde] | 66 to 67 | 0.4 |  |  |  |
| Cc1c(Cl)c(O)c(/C=C/C(C)CCCC(C)C)c(O)c1C=O (racemic) [dl-223, 3-Chloro-5-(3,7-dimethyl-1-octenyl)-4,6-dihydroxy-2-methylbenzaldehyde] |  | 1.1 |  |  |  |
| CCCCCCCCC(O)c1c(O)cc(C)c(C=O)c1O (centres unmarked) [195-9, 2,4-Dihydroxy-3-(1-hydroxynonyl)-6-methylbenzaldehyde] |  | 30 | 25 | 25 |  |
| CCCCCCCCCC(O)c1c(O)cc(C)c(C=O)c1O (centres unmarked) [195-10, 2,4-Dihydroxy-3-(1-hydroxydecyl)-6-methylbenzaldehyde] |  | 35 | 25 | 25 |  |
| CCCCCCCCCCCC(O)c1c(O)cc(C)c(C=O)c1O (centres unmarked) [195-12, 2,4-Dihydroxy-3-(1-hydroxydodecyl)-6-methylbenzaldehyde] |  | 40 | 25 | 25 |  |
| CCCCCCCCC(O)c1c(O)c(Cl)c(C)c(C=O)c1O (centres unmarked) [196-9, 5-Chloro-2,4-dihydroxy-3-(1-hydroxynonyl)-6-methylbenzaldehyde] |  | 0.5 | 0.8 | 50 |  |
| CCCCCCCCCC(O)c1c(O)c(Cl)c(C)c(C=O)c1O (centres unmarked) [196-10, 5-Chloro-2,4-dihydroxy-3-(1-hydroxydecyl)-6-methylbenzaldehyde] |  | 0.6 | 0.8 | 100 |  |
| CCCCCCCCCCCC(O)c1c(O)c(Cl)c(C)c(C=O)c1O (centres unmarked) [196-12, 5-Chloro-2,4-dihydroxy-3-(1-hydroxydodecyl)-6-methylbenzaldehyde] |  | 0.65 | 1.5 | 100 |  |
| CCCCC/C=C/c1c(O)c(Cl)c(C)c(C=O)c1O [200-7, 5-Chloro-3-(1-heptenyl)-2,4-dihydroxy-6-methylbenzaldehyde] | 96 to 97 |  |  |  |  |
| CCCCCCC/C=C/c1c(O)c(Cl)c(C)c(C=O)c1O [200-9, 5-chloro-2,4-dihydroxy-6-methyl-3-(1-nonenyl)benzaldehyde] | 79.5 to 80.5 | 0.4 | 0.8 | 100 |  |
| CCCCCCCC/C=C/c1c(O)c(Cl)c(C)c(C=O)c1O [200-10, 5-Chloro-3-(1-decenyl)-2,4-dihydroxy-6-methylbenzaldehyde] | 83 to 84 | 0.45 | 0.8 | 100 |  |
| CCCCCCCCCC/C=C/c1c(O)c(Cl)c(C)c(C=O)c1O [200-12, 5-Chloro-3-(1-dodecenyl)-2,4-dihydroxy-6-methylbenzaldehyde] |  | 0.5 | 1.5 | 100 |  |
| CCCCCCCCCCCC(O)c1c(O)ccc(C=O)c1O (centres unmarked) [201-12, 2,4-Dihydroxy-3-(1-hydroxydodecyl)benzaldehyde] |  | 300 |  |  |  |
| CCCCCCCCCCCC(O)c1c(O)c(Cl)cc(C=O)c1O (centres unmarked) [202-12, 5-Chloro-2,4-dihydroxy-3-(1-hydroxydodecyl)benzaldehyde] | 78 to 79 | 1.5 |  |  |  |
| CCCCCCCCCC/C=C/c1c(O)c(Cl)cc(C=O)c1O [203-12, 5-Chloro-3-(1-dodecenyl)-2,4-dihydroxybenzaldehyde] | 84 to 85 | 0.5 |  |  |  |
| CCCCCCCCCc1c(O)c(Cl)c(C)c(C=O)c1O [215-9, 3-Chloro-4,6-dihydroxy-2-methyl-5-nonylbenzaldehyde] | 89 to 90 | 0.21 |  |  |  |
| C/C(=C\Cc1c(O)c(Cl)c(C)c(C=O)c1O)CC/C=C(\C)[C@@H]1CC(=O)C(C)(C)O1 [AF, ascofuranone, reference compound] |  |  | 0.2 |  | inhibition of the glycerol-3-phosphate oxidation system of trypanosome [2]: very low concentration of the order of nM; minimal effective concentration (Trypanosma brucei brucei; 24 h): 200 µM |
| CCCC[C@H]1C(=O)O[C@H](C)[C@H](NC(=O)c2cccc(NC=O)c2O)C(=O)O[C@@H](C)[C@@H]1OC(=O)CC(C)C [antimycin A3] |  |  |  |  | absolute amounts of 50% inhibition [3]: 48,600 pmol/mg protein |
| CCCCCCCC/C=C/c1c(O)ccc(C=O)c1O [compound 197, 3-(1-Decenyl)-2,4-dihydroxybenzaldehyde] |  | 120 | 50 | 50 |  |
| CCCCCCCCCC/C=C/c1c(O)cc(C)c(C=O)c1O [compound 198, 3-(1-Dodecenyl)-2,4-dihydroxy-6-methylbenzaldehyde] | 103 to 105 | 16 | 50 | 50 |  |
| COc1c(Cl)c(C)c(C=O)c(O)c1C/C=C(\C)CC/C=C(\C)[C@@H]1CC(=O)C(C)(C)O1 [compound 211, 3-Chloro-6-hydroxy-4-methoxy-2-methyl-5-[(E,E)-3-methyl-7-(tetrahydro-5,5-dimethyl-4-oxo-2-furanyl)-2,6-octadienyl]benzaldehyde] |  | 4 |  |  |  |
| C/C(=C\Cc1c(O)c(Cl)c(C)c(/C=N/O)c1O)CC/C=C(\C)[C@@H]1CC(=O)C(C)(C)O1 [compound 213, 5-[(E,E)-7-(3-Chloro-2,6-dihydroxy-5-hydroxyiminomethyl-4-methylphenyl)-1,5-dimethyl-1,5-heptadienyl]-4,5-dihydro-2,2-dimethyl-3(2H)-furanone] | 102 to 103 | 28 |  |  |  |
| CC(C)=CCCC(C)CC(O)c1c(O)c(Cl)c(C)c(C=O)c1O (centres unmarked) [compound 220, 3-chloro-4,6-dihydroxy-5-(1-hydroxy-3,7-dimethyl-6-octenyl)-2-methylbenzaldehyde] |  | 20 |  |  |  |
| CO/C(=C/C(N)=O)[C@H](C)[C@H](/C=C/c1csc(-c2csc([C@@H](C)/C=C/C=C/C(C)C)n2)n1)OC [myxothiazol] |  |  |  |  | absolute amounts of 50% inhibition [3]: 21,500 pmol/mg protein |
| C/C=C(C)/C=C/C=C/[C@H](OC)[C@@H](C)[C@@H](OC)[C@@H](C)CCc1oc2c(O)c(OC)cc(OC)c2c(=O)c1C [stigmatellin] |  |  |  |  | absolute amounts of 50% inhibition [3]: 18,600 pmol/mg protein |
